Test results: ChEMBL document CHEMBL4219183, “Novel purine benzimidazoles as antimicrobial agents by regulating ROS generation and targeting clinically resistant Staphylococcus aureus DNA groove” (Bioorg Med Chem Lett, 2018)
Converted amounts (≈) assume the structure as drawn. The source made the active and inactive calls. The calls are words filed in the database; no cut-off is given here.

Assays:
Candida albicans [1] = assay: Antifungal activity against Candida albicans ATCC 90023 after 24 hrs by two fold serial dilution method; format: functional; details: ATCC 90023, 24 h
HeLa = assay: Induction of ROS generation in human HeLa cells at 6.25 to 50 uM by DCFH-DA staining based fluorescence microscopic method; format: cell-based
Candida parapsilosis = assay: Antifungal activity against Candida parapsilosis ATCC 22019 after 24 hrs by two fold serial dilution method; format: functional; details: ATCC 22019, 24 h
Staphylococcus aureus [2] = assay: Antibacterial activity against Staphylococcus aureus after 24 hrs by two fold serial dilution method; format: functional
DNA [3] = assay: Binding affinity to Staphylococcus aureus genomic DNA assessed as modified Stern-Volmer quenching constant at pH 7.4 at 314 K by fluorescence quenching analysis; format: nucleic-acid assay
Acinetobacter baumannii = assay: Antibacterial activity against Acinetobacter baumannii after 24 hrs by two fold serial dilution method; format: functional
Enterococcus faecalis = assay: Antibacterial activity against Enterococcus faecalis after 24 hrs by two fold serial dilution method; format: functional
DNA [4] = assay: Binding affinity to Staphylococcus aureus genomic DNA at pH 7.4 at 314 K by fluorescence quenching analysis; format: nucleic-acid assay
Pseudomonas aeruginosa [5] = assay: Antibacterial activity against Pseudomonas aeruginosa after 24 hrs by two fold serial dilution method; format: functional
DNA [6] = assay: Binding affinity to Staphylococcus aureus genomic DNA assessed as gibbs free energy change at 294 K; format: nucleic-acid assay
DNA [7] = assay: Binding affinity to Staphylococcus aureus genomic DNA at pH 7.4 at 304 K by fluorescence quenching analysis; format: nucleic-acid assay
Staphylococcus aureus [8] = assay: Potency index, ratio of norfloxacin MIC to compound MIC for Staphylococcus aureus; format: functional
DNA [9] = assay: Binding affinity to Staphylococcus aureus genomic DNA assessed as hyperchromic shift at 2.5 to 20 x 10^-6mol/L by UV absorption spectral analysis; format: nucleic-acid assay
Staphylococcus aureus [10] = assay: Antibacterial activity against Staphylococcus aureus ATCC 29213 after 24 hrs by two fold serial dilution method; format: functional; details: ATCC 29213, 24 h
Candida albicans [11] = assay: Antifungal activity against Candida albicans after 24 hrs by two fold serial dilution method; format: functional
Staphylococcus aureus [12] = assay: Antibacterial activity against methicillin-resistant Staphylococcus aureus N315 after 24 hrs by two fold serial dilution method; format: functional; details: N315, 24 h
DNA [13] = assay: Binding affinity to Staphylococcus aureus genomic DNA assessed as change in entropy at 304 K; format: nucleic-acid assay
DNA [14] = assay: Binding affinity to Staphylococcus aureus genomic DNA assessed as modified Stern-Volmer quenching constant at pH 7.4 at 294 K by fluorescence quenching analysis; format: nucleic-acid assay
Escherichia coli [15] = assay: Antibacterial activity against Escherichia coli ATCC 25922 after 24 hrs by two fold serial dilution method; format: functional; details: ATCC 25922, 24 h
DNA [16] = assay: Binding affinity to Staphylococcus aureus genomic DNA assessed as iodide quenching constant at pH 7.4 by fluorescence quenching analysis (reference value: 28.74 L/mol); format: nucleic-acid assay
Klebsiella pneumoniae = assay: Antibacterial activity against Klebsiella pneumoniae after 24 hrs by two fold serial dilution method; format: functional
DNA [17] = assay: Inhibition of neutral red binding to Staphylococcus aureus genomic DNA up to 20 x 10^-6mol/L by UV absorption spectral analysis; format: nucleic-acid assay
Escherichia coli [18] = assay: Antibacterial activity against Escherichia coli after 24 hrs by two fold serial dilution method; format: functional
DNA [19] = assay: Binding affinity to Staphylococcus aureus genomic DNA assessed as gibbs free energy change at 304 K; format: nucleic-acid assay
[20] = Cytotoxicity against human A549 cells assessed as cell viability at <500 ug/ml after 48 hrs by MTT assay relative to control; format: cell-based; details: read-out: Activity
Staphylococcus aureus [21] = assay: Antibacterial activity against Staphylococcus aureus ATCC 25923 after 24 hrs by two fold serial dilution method; format: functional; details: ATCC 25923, 24 h
DNA [22] = assay: Binding affinity to Staphylococcus aureus genomic DNA assessed as gibbs free energy change at 314 K; format: nucleic-acid assay
DNA [23] = assay: Binding affinity to Staphylococcus aureus genomic DNA by UV absorption spectral analysis; format: nucleic-acid assay
DNA [24] = assay: Binding affinity to Staphylococcus aureus genomic DNA assessed as change in enthalpy at 304 K; format: nucleic-acid assay
DNA [25] = assay: Binding affinity to Staphylococcus aureus genomic DNA assessed as modified Stern-Volmer quenching constant at pH 7.4 at 304 K by fluorescence quenching analysis; format: nucleic-acid assay
Aspergillus fumigatus = assay: Antifungal activity against Aspergillus fumigatus after 24 hrs by two fold serial dilution method; format: functional
Pseudomonas aeruginosa [26] = assay: Antibacterial activity against Pseudomonas aeruginosa ATCC 27853 after 24 hrs by two fold serial dilution method; format: functional; details: ATCC 27853, 24 h
Candida tropicalis = assay: Antifungal activity against Candida tropicalis after 24 hrs by two fold serial dilution method; format: functional
DNA [27] = assay: Binding affinity to Staphylococcus aureus genomic DNA at pH 7.4 at 294 K by fluorescence quenching analysis; format: nucleic-acid assay

Compound	MIC80 (Candida albicans [1]) [µg/mL]	MIC80 (Candida parapsilosis) [µg/mL]	MIC (Staphylococcus aureus [2]) [µg/mL]	MIC (Acinetobacter baumannii) [µg/mL]	MIC (Enterococcus faecalis) [µg/mL]	MIC (Pseudomonas aeruginosa [5]) [µg/mL]	MIC (Staphylococcus aureus [10]) [µg/mL]	MIC80 (Candida albicans [11]) [µg/mL]	MIC (Staphylococcus aureus [12]) [µg/mL]	MIC (Escherichia coli [15]) [µg/mL]	MIC (Klebsiella pneumoniae) [µg/mL]	MIC (Escherichia coli [18]) [µg/mL]	MIC (Staphylococcus aureus [21]) [µg/mL]	MIC80 (Aspergillus fumigatus) [µg/mL]	MIC (Pseudomonas aeruginosa [26]) [µg/mL]	MIC80 (Candida tropicalis) [µg/mL]	further results
CCCCCCn1c(Cn2cnc3c(N4CCOCC4)ncnc32)nc2ccccc21	32 (≈ 76.3 µM)	128 (≈ 305 µM)	4 (≈ 9.53 µM)	64 (≈ 153 µM)	128 (≈ 305 µM)	64 (≈ 153 µM)	512 (≈ 1220 µM)	32 (≈ 76.3 µM)	16 (≈ 38.1 µM)	8 (≈ 19.1 µM)	64 (≈ 153 µM)	128 (≈ 305 µM)	64 (≈ 153 µM)	128 (≈ 305 µM)	16 (≈ 38.1 µM)	64 (≈ 153 µM)	Activity (HeLa): Non-Toxic; Ka (DNA [3]): 1.73 ×10⁴ L/mol; KSV (DNA [4]): 1.21 ×10⁴ L/mol; deltaG (DNA [6]): -6.16 kcal/mol; KSV (DNA [7]): 1.52 ×10⁴ L/mol; Ratio (Staphylococcus aureus [8]): 16; Activity (DNA [9]): Active; deltaS (DNA [13]): -13.6 J/mol.K; Ka (DNA [14]): 3.76 ×10⁴ L/mol; KSV (DNA [16]): 78.2 L/mol; inhibition (DNA [17]): inactive; deltaG (DNA [19]): -6.13 kcal/mol; viability at 48 h [20]: > 85%; deltaG (DNA [22]): -6.09 kcal/mol; K (DNA [23]): 4.92 ×10⁵ L/mol; deltaH (DNA [24]): -7.12 kcal/mol; Ka (DNA [25]): 2.33 ×10⁴ L/mol; KSV (DNA [27]): 1.87 ×10⁴ L/mol
Fc1cccc(Cn2c(Cn3cnc4c(N5CCOCC5)ncnc43)nc3ccccc32)c1	32 (≈ 72.2 µM)	128 (≈ 289 µM)	256 (≈ 577 µM)	256 (≈ 577 µM)	128 (≈ 289 µM)	256 (≈ 577 µM)	64 (≈ 144 µM)	256 (≈ 577 µM)	512 (≈ 1150 µM)	256 (≈ 577 µM)	16 (≈ 36.1 µM)	256 (≈ 577 µM)	32 (≈ 72.2 µM)	256 (≈ 577 µM)	128 (≈ 289 µM)	128 (≈ 289 µM)	
